Source: ChEMBL document CHEMBL6083280, “De Novo Discovery of a Noncovalent Cell-Penetrating Bicyclic Peptide Inhibitor Targeting SARS-CoV-2 Main Protease” (J Med Chem, 2024)
The source made the active and inactive calls. The calls are words filed in the database; no cut-off is given here. Positions of bridges follow the written chain, without caps; N, C: chain ends. Residues, ends and D or L forms follow the SMILES beside them.

Columns and labels:
SARS-CoV-2 [1] = assay: Antiviral activity against SARS-CoV-2; format: functional, organism-based; conditions: Severe acute respiratory syndrome coronavirus 2
[2] = target: Ubiquitin carboxyl-terminal hydrolase 14 (Homo sapiens) (UniProt P54578); assay: Inhibition of USP14 (unknown origin)
Sequence of Ubiquitin carboxyl-terminal hydrolase 14 (Homo sapiens) (P54578 whole entry): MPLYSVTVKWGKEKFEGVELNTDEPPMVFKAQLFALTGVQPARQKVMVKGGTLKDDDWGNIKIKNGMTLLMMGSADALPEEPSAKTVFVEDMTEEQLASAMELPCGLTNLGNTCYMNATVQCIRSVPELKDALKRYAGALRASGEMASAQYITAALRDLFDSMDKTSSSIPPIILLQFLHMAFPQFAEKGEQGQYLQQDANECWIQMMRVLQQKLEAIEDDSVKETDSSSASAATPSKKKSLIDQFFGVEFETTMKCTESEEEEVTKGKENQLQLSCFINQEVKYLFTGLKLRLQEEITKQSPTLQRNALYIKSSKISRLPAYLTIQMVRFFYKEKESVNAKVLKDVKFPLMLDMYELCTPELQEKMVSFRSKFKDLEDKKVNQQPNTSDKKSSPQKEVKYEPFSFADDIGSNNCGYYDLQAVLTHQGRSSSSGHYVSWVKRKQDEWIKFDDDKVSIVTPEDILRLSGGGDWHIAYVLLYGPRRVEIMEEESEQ

[3] = target: Cathepsin B (Homo sapiens) (UniProt P07858); assay: Inhibition of cathepsin B (unknown origin)
[4] = target: T1, Replicase polyprotein 1ab (Severe acute respiratory syndrome coronavirus 2, UniProt P0DTD1); assay: Inhibition of N-terminal his-tagged SARS-CoV-2 Main protease expressed in Escherichia coli BL21 (DE3) using Dabcyl-TSAVLWSGFRICMK-Edans as substrate preincubated for 10 mins by microplate reader analysis
SARS-CoV-2 [5] = assay: Antiviral activity against SARS-CoV-2 infected in human Caco-2 cells assessed as inhibition of viral infection preincubated for 1 hr followed by viral infection measured after 48 hrs by CQ1 confocal quantitative image cytometer analysis; format: functional, organism-based; conditions: for EC50: Severe acute respiratory syndrome coronavirus 2, Caco-2; for Activity: Severe acute respiratory syndrome coronavirus 2, time 49.0 hrs
[6] = target: T1, Replicase polyprotein 1ab; assay: Binding affinity to N-terminal his-tagged SARS-CoV-2 Main protease expressed in Escherichia coli BL21 (DE3) assessed as dissociation constant by ITC analysis

SMILES	IC50 [4] [nM]	Activity (SARS-CoV-2 [5])	further results
CC(C)c1nc(CN(C)C(=O)N[C@H](C(=O)N[C@@H](Cc2ccccc2)C[C@H](O)[C@H](Cc2ccccc2)NC(=O)OCc2cncs2)C(C)C)cs1 [RITONAVIR]	–	–	EC50 (SARS-CoV-2 [1]): 7540 nM
CC(C)C[C@@H]1NC(=O)[C@H](Cc2ccc(F)c(F)c2)NC(=O)[C@@H]2CCCN2C(=O)[C@H]([C@@H](C)O)NC(=O)[C@H]([C@@H](C)O)NC(=O)[C@H]([C@@H](C)O)NC(=O)[C@H](Cc2c[nH]cn2)NC(=O)[C@H](Cc2cccc(F)c2)NC(=O)[C@H]([C@@H](C)O)NC(=O)[C@H](C(C)C)NC(=O)[C@@H](Cc2ccc(O)cc2)NC(=O)CSC[C@@H](C(=O)NCC(N)=O)NC(=O)[C@@H]2CCCN2C(=O)[C@@H]2CCCN2C1=O	320	–	inhibition [2]: Active; inhibition [3]: Active; EC50 (SARS-CoV-2 [5]): > 100000 nM
CC(C)C[C@@H]1NC(=O)[C@H](Cc2ccccc2)NC(=O)[C@@H]2CCCN2C(=O)[C@H]([C@@H](C)O)NC(=O)[C@H]([C@@H](C)O)NC(=O)[C@H]([C@@H](C)O)NC(=O)[C@H](Cc2c[nH]cn2)NC(=O)[C@H](Cc2ccccc2)NC(=O)[C@H]([C@@H](C)O)NC(=O)[C@H](C(C)C)NC(=O)[C@@H](Cc2ccc(O)cc2)NC(=O)CC[C@@H](C(=O)NCC(N)=O)NC(=O)[C@@H]2CCCN2C(=O)[C@@H]2CCCN2C1=O	150	–	EC50 (SARS-CoV-2 [5]): > 100000 nM
CC(C)C[C@H](NC(=O)OCc1ccccc1)C(=O)N[C@@H](CC1CCNC1=O)C(O)S(=O)(=O)O (stereo partly specified)	–	–	EC50 (SARS-CoV-2 [1]): 4500 nM
CC(C)C[C@@H]1NC(=O)[C@H](CC(N)=O)NC(=O)[C@H](Cc2ccc(O)cc2)NC(=O)CSC[C@@H](C(=O)NCC(N)=O)NC(=O)[C@H](Cc2ccccc2)NC(=O)[C@H](CCCNC(=N)N)NC(=O)[C@H](CCC(N)=O)NC(=O)[C@H](CC(N)=O)NC(=O)[C@H](Cc2c[nH]c3ccccc23)NC(=O)[C@H](CC(=O)O)NC(=O)[C@H]([C@@H](C)O)NC(=O)[C@H](CCCNC(=N)N)NC(=O)[C@H](CCC(N)=O)NC(=O)[C@H](Cc2ccccc2)NC1=O ({CH2CO}-YNLFQRTDWNQRFCG-NH2; thioether N-14)	250	inactive	Kd [6]: 2540 nM
CC(C)C[C@@H]1NC(=O)[C@H](Cc2ccccc2)NC(=O)[C@@H](Cc2ccc(O)cc2)NC(=O)CSC[C@@H](C(=O)NCC(N)=O)NC(=O)CNC(=O)[C@H](Cc2ccccc2)NC(=O)[C@H]([C@@H](C)O)NC(=O)[C@H](Cc2ccc(O)cc2)NC(=O)[C@H](CCCNC(=N)N)NC(=O)[C@H](Cc2ccc(O)cc2)NC(=O)[C@@H]2CCCN2C(=O)[C@@H]2CCCN2C1=O	1450	inactive	Kd [6]: 4000 nM
CC[C@H](C)[C@@H]1NC(=O)[C@@H](Cc2ccc(O)cc2)NC(=O)CSC[C@@H](C(N)=O)NC(=O)[C@H](C(C)C)NC(=O)[C@H](CC(C)C)NC(=O)[C@@H]2CCCN2C(=O)[C@H](Cc2ccccc2)NC(=O)[C@H]([C@@H](C)O)NC(=O)[C@H](Cc2c[nH]cn2)NC1=O	1400	inactive	–
CC(C)C[C@@H]1NC(=O)[C@H](CC(N)=O)NC(=O)[C@H](Cc2ccc(O)cc2)NC(=O)CSC[C@@H](C(=O)NCC(N)=O)NC(=O)[C@H](Cc2ccccc2)NC(=O)[C@H](CO)NC(=O)[C@H](CO)NC(=O)[C@H](CO)NC(=O)[C@H](Cc2c[nH]c3ccccc23)NC(=O)[C@H](CC(=O)O)NC(=O)[C@H](C)NC(=O)[C@H](CCCNC(=N)N)NC(=O)[C@H](CCC(N)=O)NC(=O)[C@H](Cc2ccccc2)NC1=O ({CH2CO}-YNLFQRADWSSSFCG-NH2; thioether N-14)	300	inactive	Kd [6]: 6730 nM
CC[C@H](C)[C@@H]1NC(=O)[C@H](Cc2ccc(O)cc2)NC(=O)[C@H](CO)NC(=O)[C@H](CC(C)C)NC(=O)CNC(=O)[C@H](Cc2ccc(O)cc2)NC(=O)[C@H](CO)NC(=O)[C@H](CCC(N)=O)NC(=O)[C@H](Cc2ccccc2)NC(=O)[C@@H](Cc2ccc(O)cc2)NC(=O)CSC[C@@H](C(=O)NCC(N)=O)NC(=O)CNC(=O)[C@@H]2CCCN2C1=O	460	inactive	Kd [6]: 2780 nM
CC(C)[C@@H]1NC(=O)[C@@H](Cc2ccc(O)cc2)NC(=O)CC[C@@H](C(=O)NCC(N)=O)NC(=O)[C@@H]2CCCN2C(=O)[C@@H]2CCCN2C(=O)[C@@H]2CSCc3cccc(c3)CSC[C@H](NC1=O)C(=O)N[C@@H](Cc1ccccc1)C(=O)N[C@@H](Cc1c[nH]cn1)C(=O)N[C@@H]([C@@H](C)O)C(=O)N[C@@H]([C@@H](C)O)C(=O)N[C@@H]([C@@H](C)O)C(=O)N1CCC[C@H]1C(=O)N[C@@H](Cc1ccccc1)C(=O)N2	440	–	EC50 (SARS-CoV-2 [5]): > 100000 nM
CC(C)C[C@@H]1NC(=O)[C@H](Cc2ccccc2)NC(=O)[C@@H]2CCCN2C(=O)[C@H]([C@@H](C)O)NC(=O)[C@H]([C@@H](C)O)NC(=O)[C@H]([C@@H](C)O)NC(=O)[C@H](Cc2c[nH]cn2)NC(=O)[C@H](Cc2cccc(F)c2)NC(=O)[C@H]([C@@H](C)O)NC(=O)[C@H](C(C)C)NC(=O)[C@@H](Cc2ccc(O)cc2)NC(=O)CSC[C@@H](C(=O)NCC(N)=O)NC(=O)[C@@H]2CCCN2C(=O)[C@@H]2CCCN2C1=O	250	–	EC50 (SARS-CoV-2 [5]): > 100000 nM
CC[C@H](C)[C@@H]1NC(=O)[C@@H](Cc2ccc(O)cc2)NC(=O)CSC[C@@H](C(N)=O)NC(=O)[C@H]([C@@H](C)CC)NC(=O)[C@@H]2CCCN2C(=O)[C@@H]2CCCN2C(=O)[C@H](Cc2ccccc2)NC(=O)[C@H](CO)NC(=O)[C@H](CCC(N)=O)NC1=O	1400	inactive	–
CC(C)(C)[C@H](NC(=O)C(F)(F)F)C(=O)N1C[C@H]2[C@@H]([C@H]1C(=O)N[C@H](C#N)C[C@@H]1CCNC1=O)C2(C)C	–	–	EC50 (SARS-CoV-2 [1]): 32.6 nM
CC(C)C[C@@H]1NC(=O)[C@H](Cc2ccccc2)NC(=O)[C@@H]2CCCN2C(=O)[C@H]([C@@H](C)O)NC(=O)[C@H]([C@@H](C)O)NC(=O)[C@H]([C@@H](C)O)NC(=O)[C@H](Cc2c[nH]cn2)NC(=O)[C@H](Cc2ccccc2)NC(=O)[C@H](C)NC(=O)[C@H](C(C)C)NC(=O)[C@@H](Cc2ccc(O)cc2)NC(=O)CSC[C@@H](C(=O)NCC(N)=O)NC(=O)[C@@H]2CCCN2C(=O)[C@@H]2CCCN2C1=O	1650	–	–
CC[C@H](C)[C@@H]1NC(=O)[C@@H](Cc2ccc(O)cc2)NC(=O)CSC[C@@H](C(N)=O)NC(=O)[C@H](C(C)C)NC(=O)[C@H](CC(C)C)NC(=O)[C@@H]2CCCN2C(=O)[C@H](Cc2ccccc2)NC(=O)[C@H]([C@@H](C)O)NC(=O)[C@H](CCC(N)=O)NC1=O	1400	inactive	–
CC(C)C[C@@H]1NC(=O)[C@H](Cc2ccccc2)NC(=O)[C@@H]2CCCN2C(=O)[C@H]([C@@H](C)O)NC(=O)[C@H]([C@@H](C)O)NC(=O)[C@H]([C@@H](C)O)NC(=O)[C@H](Cc2c[nH]cn2)NC(=O)[C@H](Cc2ccccc2)NC(=O)[C@H]([C@@H](C)O)NC(=O)[C@H](C)NC(=O)[C@@H](Cc2ccc(O)cc2)NC(=O)CSC[C@@H](C(=O)NCC(N)=O)NC(=O)[C@@H]2CCCN2C(=O)[C@@H]2CCCN2C1=O	> 10000	–	–
CC(C)C[C@@H]1NC(=O)[C@H](Cc2ccccc2)NC(=O)[C@@H]2CCCN2C(=O)[C@H]([C@@H](C)O)NC(=O)[C@H](C)NC(=O)[C@H]([C@@H](C)O)NC(=O)[C@H](Cc2c[nH]cn2)NC(=O)[C@H](Cc2ccccc2)NC(=O)[C@H]([C@@H](C)O)NC(=O)[C@H](C(C)C)NC(=O)[C@@H](Cc2ccc(O)cc2)NC(=O)CSC[C@@H](C(=O)NCC(N)=O)NC(=O)[C@@H]2CCCN2C(=O)[C@@H]2CCCN2C1=O	200	–	–
CC(C)C[C@@H]1NC(=O)[C@H](Cc2ccccc2)NC(=O)[C@@H]2CCCN2C(=O)[C@H]([C@@H](C)O)NC(=O)[C@H]([C@@H](C)O)NC(=O)[C@H]([C@@H](C)O)NC(=O)[C@H](C)NC(=O)[C@H](Cc2ccccc2)NC(=O)[C@H]([C@@H](C)O)NC(=O)[C@H](C(C)C)NC(=O)[C@@H](Cc2ccc(O)cc2)NC(=O)CSC[C@@H](C(=O)NCC(N)=O)NC(=O)[C@@H]2CCCN2C(=O)[C@@H]2CCCN2C1=O	> 10000	–	–
CC[C@H](C)[C@@H]1NC(=O)[C@@H](Cc2ccc(O)cc2)NC(=O)CSC[C@@H](C(=O)NCC(N)=O)NC(=O)[C@@H]2CCCN2C(=O)[C@H](CC(C)C)NC(=O)[C@H](CC(C)C)NC(=O)[C@H]([C@@H](C)O)NC(=O)[C@H](CC(N)=O)NC(=O)CNC(=O)[C@H](CO)NC(=O)[C@H](C)NC(=O)[C@H](Cc2ccccc2)NC(=O)[C@H](CCCNC(=N)N)NC1=O	250	inactive	Kd [6]: 4800 nM
CC(C)[C@@H]1NC(=O)[C@@H](Cc2ccc(O)cc2)NC(=O)CC[C@@H](C(N)=O)NC(=O)[C@@H]2CCCN2C(=O)[C@@H]2CCCN2C(=O)[C@@H]2CSc3c(F)c(F)c(c(F)c3F)SC[C@H](NC1=O)C(=O)N[C@@H](Cc1ccccc1)C(=O)N[C@@H](Cc1c[nH]cn1)C(=O)N[C@@H]([C@@H](C)O)C(=O)N[C@@H]([C@@H](C)O)C(=O)N[C@@H]([C@@H](C)O)C(=O)N1CCC[C@H]1C(=O)N[C@@H](Cc1ccccc1)C(=O)N2	16600	–	EC50 (SARS-CoV-2 [5]): > 100000 nM
CC[C@H](C)[C@@H]1NC(=O)[C@H](Cc2c[nH]cn2)NC(=O)[C@H](CO)NC(=O)[C@H](Cc2ccccc2)NC(=O)[C@H](Cc2ccc(O)cc2)NC(=O)[C@H](CCC(N)=O)NC(=O)[C@H]([C@@H](C)O)NC(=O)[C@H](Cc2ccc(O)cc2)NC(=O)CSC[C@@H](C(=O)N[C@@H](CO)C(=O)N[C@@H](CO)C(=O)N[C@@H](CCCNC(=N)N)C(=O)N[C@@H](CO)C(=O)NCC(N)=O)NC1=O ({CH2CO}-YTQYFSHICSSRSG-NH2; thioether N-9)	> 100000	–	–
